The species named for test [1] is Rattus norvegicus. Put plainly: Induction of magnesium accumulation in rat adipocyte plasma membrane vesicles assessed as increase of magnesium level per gram of protein per 30 mins at 5 x 10^-8 M by fluorescence assay. It counts as functional, cell membranes.
For test [2], the system named is Lipid bilayer. Put plainly: Lipolytic activity in isolated rat adipocytes assessed as fatty acid release at 0.5 to 100 nmol/ml.
For test [3], the species on record is Rattus norvegicus. Nature of the test: Induction of magnesium accumulation in rat adipocyte plasma membrane vesicles assessed as increase of intravesicular magnesium level per 30 mins at 5 x 10^-8 M by fluorescence assay. It counts as functional, cell membranes.
For test [4], the species on record is Rattus norvegicus. Put plainly: Induction of magnesium accumulation in rat adipocyte plasma membrane vesicles assessed as increase of magnesium level per gram of protein per 30 mins at 1 x 10^-5 M by fluorescence assay. The format is functional, cell membranes.
The species entered for test [5] is Rattus norvegicus. Nature of the test: Induction of magnesium accumulation in rat adipocyte plasma membrane vesicles assessed as increase of intravesicular magnesium level per 30 mins at 1 x 10^-5 M by fluorescence assay. The format is functional, cell membranes.
The species entered for test [6] is Rattus norvegicus. Nature of the test: Induction of magnesium accumulation in rat adipocyte plasma membrane vesicles assessed as increase of magnesium level per gram of protein per 30 mins at 1 x 10^-5 M by fluorescence assay in presence of alpha-adrenergic antagonist phentolamine. It counts as functional, cell membranes.
The species named for test [7] is Rattus norvegicus. Nature of the test: Induction of magnesium accumulation in rat adipocyte plasma membrane vesicles assessed as increase of intravesicular magnesium level per 30 mins at 1 x 10^-5 M by fluorescence assay in presence of beta-adrenergic antagonist propranolol. The format is functional, cell membranes.
Test [8] is filed under the species Rattus norvegicus. Put plainly: Induction of magnesium accumulation in rat adipocyte plasma membrane vesicles assessed as increase of intravesicular magnesium level per 30 mins at 1 x 10^-5 M by fluorescence assay in presence of alpha-adrenergic antagonist phentolamine. The format is functional, cell membranes.
Test [9] is filed under the species Rattus norvegicus. Put plainly: Induction of magnesium accumulation in rat adipocyte plasma membrane vesicles assessed as increase of magnesium level per gram of protein per 30 mins at 1 x 10^-5 M by fluorescence assay in presence of beta-adrenergic antagonist propranolol. The format is functional, cell membranes.
Test [10] is filed under the species Rattus norvegicus. Put plainly: Induction of magnesium accumulation in rat adipocyte plasma membrane vesicles assessed as increase of intravesicular magnesium level per 30 mins at 2 x 10^-4 M by fluorescence assay. It counts as functional, cell membranes.
For test [11], the species on record is Rattus norvegicus. Put plainly: Induction of magnesium accumulation in rat adipocyte plasma membrane vesicles assessed as increase of magnesium level per gram of protein per 30 mins at 2 x 10^-4 M by fluorescence assay. The format is functional, cell membranes.

Molecules are shown by their SMILES. Activity calls are given as the source filed them. The calls are words filed in the database; no cut-off is given here. Residues, ends and D or L forms follow the SMILES beside them.

In the case of `CC(C)[C@H](NC(=O)[C@H](CCCCN)NC(=O)[C@@H](NC(=O)[C@@H]1CCCN1C(=O)[C@H](CCCNC(=N)N)NC(=O)[C@H](CCCNC(=N)N)NC(=O)[C@H](CCCCN)NC(=O)[C@H](CCCCN)NC(=O)CNC(=O)[C@@H](NC(=O)[C@@H]1CCCN1C(=O)[C@@H](N)CCCCN)C(C)C)C(C)C)C(=O)N[C@@H](Cc1ccc(O)cc1)C(=O)N1CCC[C@H]1C(=O)O` (H-KPVGKKRRPVKVYP-OH), the values for the Activity in test [1] and in [3] were 8.32 µmol and 0.8 mM, respectively. The outcome in test [2] was inactive.

Regarding `CSCC[C@H](NC(=O)[C@H](CO)NC(=O)[C@H](Cc1ccc(O)cc1)NC(=O)[C@@H](N)CO)C(=O)N[C@@H](CCC(=O)O)C(=O)N[C@@H](Cc1cnc[nH]1)C(=O)N[C@@H](Cc1ccccc1)C(=O)N[C@@H](CCCNC(=N)N)C(=O)N[C@@H](Cc1c[nH]c2ccccc12)C(=O)NCC(=O)N[C@@H](CCCCN)C(=O)N1CCC[C@H]1C(=O)N[C@H](C(=O)NCC(=O)N[C@@H](CCCCN)C(=O)N[C@@H](CCCCN)C(=O)N[C@@H](CCCNC(=N)N)C(=O)N[C@@H](CCCNC(=N)N)C(=O)N1CCC[C@H]1C(=O)N[C@H](C(=O)N[C@@H](CCCCN)C(=O)N[C@H](C(=O)N[C@@H](Cc1ccc(O)cc1)C(=O)N1CCC[C@H]1C(=O)N[C@@H](CC(N)=O)C(=O)NCC(=O)N[C@@H](C)C(=O)N[C@@H](CCC(=O)O)C(=O)N[C@@H](CC(=O)O)C(=O)N[C@@H](CCC(=O)O)C(=O)N[C@@H](CC(C)C)C(=O)N[C@@H](C)C(=O)N[C@@H](CCC(=O)O)C(=O)N[C@@H](C)C(=O)N[C@@H](Cc1ccccc1)C(=O)N1CCC[C@H]1C(=O)N[C@@H](CC(C)C)C(=O)N[C@@H](CCC(=O)O)C(=O)N[C@@H](Cc1ccccc1)C(=O)O)C(C)C)C(C)C)C(C)C` (H-SYSMEHFRWGKPVGKKRRPVKVYPNGAEDELAEAFPLEF-OH), the Activity turned out to be 9.78 µmol in [1] and 0.94 mM in [3].

With `CSCC[C@H](NC(=O)[C@H](CO)NC(=O)[C@H](Cc1ccc(O)cc1)NC(=O)[C@@H](N)CO)C(=O)N[C@@H](CCC(=O)O)C(=O)N[C@@H](Cc1cnc[nH]1)C(=O)N[C@@H](Cc1ccccc1)C(=O)N[C@@H](CCCNC(=N)N)C(=O)N[C@@H](Cc1c[nH]c2ccccc12)C(=O)NCC(=O)N[C@@H](CCCCN)C(=O)N1CCC[C@H]1C(=O)N[C@H](C(=O)NCC(=O)N[C@@H](CCCCN)C(=O)N[C@@H](CCCCN)C(=O)N[C@@H](CCCNC(=N)N)C(=O)N[C@@H](CCCNC(=N)N)C(=O)N1CCC[C@H]1C(=O)N[C@H](C(=O)O)C(C)C)C(C)C` (H-SYSMEHFRWGKPVGKKRRPV-OH), the Activity amounted to 3.74 µmol in test [1] and 0.36 mM in [3]. Also, the result in [2] was Active.

With `CC(C)NCC(O)c1ccc(O)c(O)c1` (stereo not drawn), the Activity in [4] came to 3.12 µmol; in test [5] it was 0.3 mM.

Turning to `NC[C@H](O)c1ccc(O)c(O)c1`, the Activity worked out at 3.85 µmol in test [6]; 13.5 µmol in test [4]; 0.85 mM in test [7]; 0.37 mM in test [8]; 8.84 µmol in test [9]; 1.3 mM in [5].

With `COc1ccc(OC)c(C(O)C(C)N)c1` (stereo not drawn), the Activity in [10] came to 1.07 mM; in [11] it was 11.1 µmol.
